Source: patent publication US20130123298A1, “PHARMACEUTICAL COMPOSITION FOR THE PREVENTION OF PERIOPERATIVE ARTERIAL HYPOTENSION IN HUMANS” (LABORATOIRE AGUETTANT, priority 2010, published 2013)

Test system: adult patients under general anesthetic in noncardiac surgery
Type: in vivo, human
Description: The study covered 1,534 patients having received perioperative hemodynamic optimization with use of noradrenaline (in the form of noradrenaline tartrate) to maintain blood pressure under general anesthetic in noncardiac surgery in adults.
The hemodynamic surveillance is performed non-invasively as blood pressure is taken automatically every 2 minutes when inducing anesthesia, then every 5 minutes during the hemodynamic stability period.
Administration of noradrenaline in continuous perfusion with the solution titered at 10 μg/mL.
This solution is injected: • firstly as a continuous perfusion, in an automatic syringe pump, whose speed will be modulated as a function of the weight, age, and initial “blood pressure state” of the patient (notion of treated or untreated hypertension), of the presence or absence of epidural anesthesia combined with general anesthesia. • secondly as an isolated perfusion to prevent causing a bolus of NA during the injection of another drug in the perfusion tubing. This isolated perfusion is branched either on an extra venous catheter independent of the venous access used for the anesthetic, or on a multi-lumen catheter of a central venous path, or on a three-way tap located between the peripheral venous catheter and the end of the perfusion tubing.
The recommended dosages are 0.02 to 0.08 μg/kg/min of noradrenaline.
The suitable dosage is that which delivers blood pressure similar, within a limit of 20% of the preoperative blood pressure of the patient, and systolic blood pressure >100 mmHg
For general anesthetic, noradrenaline administration by continuous perfusion with the solution titered at 10 μg/mL must be started 3 to 4 minutes before inducing anesthesia to prevent hypotension caused by the anesthetic.
The patient is weaned off noradrenaline during the emergence phase by progressively reducing noradrenaline administration dosages as a function of how well the patient is returning to the preoperative blood pressure.
The study covered 1,534 patients 15 to 102 years old (average age 56 years old), with average weight 72 kg (extremes from 33 to 163 kg), mean preoperative blood pressure 138 mmHg (from 95 to 200 mmHg).
The induction procedure for general anesthetic is the same for all the patients: the patients receive 0.2 μg/kg of sufentanil, after 3 minutes 1.5 to 3 mg/kg propofol, then 0.15 mg/kg of cisatracurium.
The patients are intubated 3 minutes after the curare injection and ventilated with 8 mL/kg of theoretical weight.
Anesthesia is maintained using sevoflurane. The perioperative analgesia is handled by continuous injection of remifentanil and/or by iterative injection of sufentanil.
A continuous perfusion of noradrenaline in solution at 10 μg/mL of noradrenaline is administered 4 minutes before inducing anesthesia.
The dosages used are generally comprised between 0.02 and 0.08 μg/kg/min.
The patient is weaned off the continuous perfusion of the noradrenaline solution at 10 μg/mL in the emergence phase by progressively reducing the noradrenaline administration dosages as a function of how well the patient is returning to the preoperative blood pressure.
Clinically: non-invasive blood pressure surveillance is performed every 2 minutes when inducing anesthesia, then every 5 minutes during the hemodynamic stability period.
The quality of the perioperative hemostasis was always noted.
The following elements are systematically monitored and noted in the first 24 hours postoperative: agitation when waking, postoperative nausea and/or vomiting (PONY).
Biologically: troponin was assayed at D1 in 26.0% of patients judged to be at risk: 99.87% were at zero, one patient has a troponine assay at 0.04 and one patient at 0.05 μg/mL (significance threshold is 0.4 μg/mL). These patients were controlled again and their level had normalized at D2.
Urea and creatinine assay on D0 and D1 performed on 26.0% of the patients judged to be at higher risk. […]

[1] = general anesthetic combined with epidural anesthetic

cases of superficial venous thromboses detected (human, in vivo): five | hypertension needing nicardipine 1 mg bolus as last resort (human, in vivo): 26 cases | other undesirable effects (human, in vivo): No other undesirable effect | patients with troponin at zero (human, in vivo): 99.87% | perioperative urine flows (human, in vivo): net increase | postoperative vomiting (human, in vivo): none of the patients | renal function (urea and creatinine assay) (human, in vivo): no changes to renal function | postoperative nausea (human, in vivo, 24 h): 1.2% | distal peripheral venous thrombosis complications (human, in vivo, 4 day): 0.32%
SMILES: NC[C@H](O)c1ccc(O)c(O)c1 [noradrenaline, 4-[(1R)-2-amino-1-hydroxyethyl]benzene-1,2-diol]
effect on blood pressure (continuous injection): immediate, brief, but without tachyphylaxis, long-lasting in continuous injection, rapidly reversible | perioperative blood pressure control (five elderly patients with aortal stenosis and hip fracture, general anesthesia): controlled perioperative blood pressure during general anesthesia without cardiac incidents | duration of blood pressure control [1]: up to 400 min | tachyphylaxis and vascular filling during prolonged blood pressure control [1]: without tachyphylaxis and without excess vascular filling | blood pressure control (hemodialyzed patients with renal failure, 0.05 to 0.08 μg/kg/min): blood pressure could be controlled | urea and creatinine postoperative value (human, in vivo): reduction of their postoperative value at D1 | lucidity at emergence and absence of agitation (independent of duration of intervention and patient age): noted in all patients | health risk and surgical outcomes (patients over 80 years old (8.5%)): the health risk was controlled and surgical outcomes were simple | quality of emergence (young patients without history, 0.02 μg/kg/h): better lucidity and quasi-disappearance of postoperative nausea and vomiting
